Test results reported in ChEMBL document CHEMBL1201862, “PubChem BioAssay data set” (2004).
Structures can show the parent of a compound that is named as a salt. The source made the active and inactive calls.

Legend:
Phospholipase D1 = biological target: T1, Phospholipase D1 (Homo sapiens, UniProt Q13393); assay: PLD1 inhibitor potency in cells, dose response (AID 602151); assay type: functional;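 also: cellular PLD1 assay in Calu-1 cells stimulated with PMA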
T1 sequence (Q13393 whole entry): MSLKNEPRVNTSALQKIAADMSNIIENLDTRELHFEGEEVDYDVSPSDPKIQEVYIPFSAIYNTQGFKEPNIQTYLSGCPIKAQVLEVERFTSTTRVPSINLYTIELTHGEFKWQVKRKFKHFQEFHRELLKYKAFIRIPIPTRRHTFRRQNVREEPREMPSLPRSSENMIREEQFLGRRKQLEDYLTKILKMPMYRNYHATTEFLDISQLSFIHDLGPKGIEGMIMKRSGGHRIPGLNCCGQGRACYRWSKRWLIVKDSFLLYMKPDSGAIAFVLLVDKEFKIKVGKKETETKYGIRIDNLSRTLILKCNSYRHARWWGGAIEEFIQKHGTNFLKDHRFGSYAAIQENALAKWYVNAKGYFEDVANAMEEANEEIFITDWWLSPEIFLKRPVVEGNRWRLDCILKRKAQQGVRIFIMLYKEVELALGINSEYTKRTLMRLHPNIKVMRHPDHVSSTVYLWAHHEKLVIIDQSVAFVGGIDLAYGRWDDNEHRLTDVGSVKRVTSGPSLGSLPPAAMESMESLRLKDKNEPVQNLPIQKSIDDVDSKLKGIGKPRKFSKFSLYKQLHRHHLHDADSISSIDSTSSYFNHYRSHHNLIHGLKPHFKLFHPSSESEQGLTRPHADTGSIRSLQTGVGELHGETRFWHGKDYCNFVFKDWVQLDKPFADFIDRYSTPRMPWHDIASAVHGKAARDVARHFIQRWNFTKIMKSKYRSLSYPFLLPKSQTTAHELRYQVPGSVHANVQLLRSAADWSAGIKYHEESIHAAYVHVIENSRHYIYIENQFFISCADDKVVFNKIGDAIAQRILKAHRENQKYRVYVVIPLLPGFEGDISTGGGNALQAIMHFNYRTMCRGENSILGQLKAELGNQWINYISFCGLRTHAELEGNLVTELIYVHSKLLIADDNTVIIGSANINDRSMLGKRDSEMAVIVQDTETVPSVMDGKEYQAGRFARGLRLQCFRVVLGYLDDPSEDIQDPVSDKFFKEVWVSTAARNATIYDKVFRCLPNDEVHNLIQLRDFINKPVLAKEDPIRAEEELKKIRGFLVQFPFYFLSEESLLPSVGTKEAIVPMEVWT

Phospholipase D2 = Phospholipase D2 (Homo sapiens, UniProt O14939); assay: PLD2 inhibitor potency in cells, dose response (AID 602147); assay type: functional;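 also: cellular assay in HEK293 cells overexpressing GFP-tagged PLD2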
Phospholipase D2, sequence (O14939 whole entry): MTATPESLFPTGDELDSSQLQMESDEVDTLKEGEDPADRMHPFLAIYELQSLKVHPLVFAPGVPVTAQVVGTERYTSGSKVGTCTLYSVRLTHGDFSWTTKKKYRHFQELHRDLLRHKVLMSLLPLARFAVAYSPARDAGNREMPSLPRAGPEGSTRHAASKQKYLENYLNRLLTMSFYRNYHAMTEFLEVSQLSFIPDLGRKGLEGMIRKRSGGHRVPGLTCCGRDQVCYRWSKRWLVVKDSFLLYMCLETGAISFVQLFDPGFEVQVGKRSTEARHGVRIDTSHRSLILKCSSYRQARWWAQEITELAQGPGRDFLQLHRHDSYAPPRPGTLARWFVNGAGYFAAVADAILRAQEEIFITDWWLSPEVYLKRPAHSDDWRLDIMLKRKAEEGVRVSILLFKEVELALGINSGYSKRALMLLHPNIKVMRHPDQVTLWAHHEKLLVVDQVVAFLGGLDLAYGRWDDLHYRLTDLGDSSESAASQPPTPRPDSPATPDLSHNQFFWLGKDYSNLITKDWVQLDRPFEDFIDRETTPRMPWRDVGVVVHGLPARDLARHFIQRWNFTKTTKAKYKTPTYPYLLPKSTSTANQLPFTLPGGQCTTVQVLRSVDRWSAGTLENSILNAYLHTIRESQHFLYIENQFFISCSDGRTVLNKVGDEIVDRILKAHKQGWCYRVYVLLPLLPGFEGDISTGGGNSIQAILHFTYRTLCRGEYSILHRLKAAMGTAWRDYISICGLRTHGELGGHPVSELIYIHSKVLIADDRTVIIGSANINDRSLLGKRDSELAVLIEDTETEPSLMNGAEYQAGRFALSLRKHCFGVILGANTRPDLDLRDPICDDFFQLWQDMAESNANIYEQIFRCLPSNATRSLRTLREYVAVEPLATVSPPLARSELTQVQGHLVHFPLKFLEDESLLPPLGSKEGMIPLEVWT

[1] = NIH-3T3 fibroblast cytotoxicity, dose response, cytotoxicity control, cell-based, fluorescence, Alamar Blue, secondary assay (AID 2327); assay type: functional;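 also: NIH-3T3 mouse fibroblasts cultured with fluconazole at 8 µg/mL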
[2] = test system: Streptococcus sp. 'group A'; assay: growth inhibition of control SK(-) GAS strain, dose response, counter-screen for streptokinase expression inhibitor project, luminescence, kanamycin, BacTiterGlo, confirmation (AID 1900); assay type: functional, organism-based
[3] = C. albicans growth with fluconazole, confirmation, fluorescence, retest (AID 2467); assay type: functional, cell-based
Streptococcus = assay: Group A Streptococcus viability loss, dose response, counter-screen for streptokinase expression inhibitor project, luminescence, BacTiterGlo (AID 1915); assay type: functional, organism-based;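 also: potency for reduction of bacterial viability or growth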
[4] = biological target: Heat shock protein HSP 90-alpha (Homo sapiens, UniProt P07900); assay type: functional, organism-based
Vero = Vero cell cytotoxicity, cytotoxicity control for flavivirus capping enzyme inhibitors (AID 588742); assay type: functional; conditions: Chlorocebus sabaeus
INS1 = assay: beta cell apoptosis inhibitors, cytokine rescue, dose response, luminescence, retest (AID 449756); assay type: functional, cell-based; conditions: Rattus norvegicus;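 also: cell death triggered by IL-1 beta plus TNF-alpha plus IFN-gamma mixture; protective hits raise ATP signal compared with cytokine alone wells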
[5] = biological target: Glucose-6-phosphate 1-dehydrogenase (Homo sapiens, UniProt P11413); assay: human G6PD enzyme inhibitors, dose response, selectivity assay for P. falciparum G6PD inhibitor project, biochemical, fluorescence (AID 504792); assay type: functional
Glucose-6-phosphate 1-dehydrogenase, sequence (P11413 whole entry): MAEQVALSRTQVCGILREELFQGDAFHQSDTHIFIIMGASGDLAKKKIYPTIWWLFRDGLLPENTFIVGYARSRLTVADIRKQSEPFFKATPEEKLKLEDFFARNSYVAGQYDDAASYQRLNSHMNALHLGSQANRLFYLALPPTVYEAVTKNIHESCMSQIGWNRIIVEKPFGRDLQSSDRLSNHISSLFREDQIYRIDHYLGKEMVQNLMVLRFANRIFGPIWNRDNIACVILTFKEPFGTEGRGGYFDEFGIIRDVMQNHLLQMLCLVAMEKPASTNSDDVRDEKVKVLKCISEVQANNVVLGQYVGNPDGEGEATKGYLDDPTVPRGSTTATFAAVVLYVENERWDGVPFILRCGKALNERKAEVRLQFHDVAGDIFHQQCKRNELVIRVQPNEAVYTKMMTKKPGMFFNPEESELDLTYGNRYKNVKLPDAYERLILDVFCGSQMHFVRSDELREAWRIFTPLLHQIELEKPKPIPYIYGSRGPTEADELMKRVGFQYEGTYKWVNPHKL

[6] = biological target: T2, Apoptotic protease-activating factor 1 (Homo sapiens, UniProt O14727); assay type: functional
T2 sequence (O14727 whole entry): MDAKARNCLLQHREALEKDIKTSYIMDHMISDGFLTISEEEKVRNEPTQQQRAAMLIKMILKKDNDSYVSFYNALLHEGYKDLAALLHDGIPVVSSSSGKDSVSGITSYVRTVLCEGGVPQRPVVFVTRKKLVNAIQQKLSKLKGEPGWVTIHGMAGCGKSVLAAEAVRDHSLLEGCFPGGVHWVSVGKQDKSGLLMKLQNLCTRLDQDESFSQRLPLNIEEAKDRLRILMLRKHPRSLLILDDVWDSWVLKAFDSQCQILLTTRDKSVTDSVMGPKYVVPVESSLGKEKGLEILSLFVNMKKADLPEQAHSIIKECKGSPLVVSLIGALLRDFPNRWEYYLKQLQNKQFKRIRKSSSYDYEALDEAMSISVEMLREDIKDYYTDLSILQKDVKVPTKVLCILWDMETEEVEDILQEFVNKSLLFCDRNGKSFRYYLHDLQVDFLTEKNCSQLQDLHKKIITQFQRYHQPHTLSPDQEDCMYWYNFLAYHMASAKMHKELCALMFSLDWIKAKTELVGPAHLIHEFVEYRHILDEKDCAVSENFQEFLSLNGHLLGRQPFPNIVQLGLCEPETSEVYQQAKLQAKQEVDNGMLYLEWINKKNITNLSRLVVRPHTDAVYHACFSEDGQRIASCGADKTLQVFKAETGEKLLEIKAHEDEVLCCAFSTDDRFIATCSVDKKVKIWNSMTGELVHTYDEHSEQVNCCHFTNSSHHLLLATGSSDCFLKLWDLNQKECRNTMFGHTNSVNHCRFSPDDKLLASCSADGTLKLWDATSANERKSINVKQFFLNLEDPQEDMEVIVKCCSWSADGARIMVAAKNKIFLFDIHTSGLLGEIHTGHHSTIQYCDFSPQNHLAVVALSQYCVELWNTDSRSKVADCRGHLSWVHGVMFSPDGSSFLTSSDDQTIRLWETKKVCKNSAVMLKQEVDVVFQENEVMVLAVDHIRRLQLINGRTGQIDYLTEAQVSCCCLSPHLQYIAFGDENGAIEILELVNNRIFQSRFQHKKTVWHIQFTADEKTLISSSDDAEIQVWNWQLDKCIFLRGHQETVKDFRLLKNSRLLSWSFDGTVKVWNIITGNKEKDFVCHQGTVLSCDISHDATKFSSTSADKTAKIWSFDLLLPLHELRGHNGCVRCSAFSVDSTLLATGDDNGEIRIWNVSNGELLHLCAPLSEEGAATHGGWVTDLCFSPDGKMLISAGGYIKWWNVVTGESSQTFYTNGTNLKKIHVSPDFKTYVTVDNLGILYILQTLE

With `O=C(N[C@@H](Cc1ccccc1)CN1CCC(n2c(=O)[nH]c3ccccc32)CC1)c1cnc2ccccc2c1` the IC50 (Phospholipase D1) was 2.8 µM (active) and the IC50 (Phospholipase D2) was 20 µM (active).

In the case of `COc1cccc(N2CCN(CCNC(=O)c3ccc4ccccc4c3)CC2)c1`, the IC50 (Phospholipase D1) is reported as 10 µM (active) and the IC50 (Phospholipase D2) is reported as 18 µM (active).

In the case of `C[C@@H](CN1CCC(n2c(=O)[nH]c3ccc(F)cc32)CC1)NC(=O)c1ccc(F)c(F)c1`, the IC50 (Phospholipase D1) is reported as 0.005 µM (active) and the IC50 (Phospholipase D2) is reported as 0.315 µM (active).

For `CC(=O)NC(c1ccccc1)c1cc(Cl)c2cccnc2c1O` (stereo not given), the EC50 [1] was 4.24 µM (active), the EC50 [2] was 1.73 µM (active) and the EC50 [3] was 0.514 µM (active). The EC50 (Streptococcus) was 2.71 µM (active), the AC50 [4] was 3.79 µM (active) and the CC50 (Vero) was 6.04 µM (active). For the same compound, the AC50 (INS1) was 1.2 µM (active).

With `CCOC(=O)Nc1ccc(NCc2ccc(F)cc2)nc1N` [FLUPIRTINE MALEATE] the IC50 [5] was 65.4 µM (inactive) and the IC50 [6] was 26.6 µM (active).
